The values below come from patent US20110237626A1, “COMPOSITIONS FOR HYGIENIC HAND DISINFECTION AND DISINFECTANT HANDWASHING” (AIR LIQUIDE SANTE (INTERNATIONAL), priority 2005, published 2011).

`CCCCC(CC)COCC(O)CO` (stereo not shown) [1-(2-ethylhexyl)glycerol ether, 1-(2-Ethylhexyl)-glycerol ether] showed a solubility in water of 0.1 % by weight.
